In patent US6043275A, “3,7-dithiaprostanoic acid derivative” (Ono Pharmaceutical Co., Ltd., priority 1998, dated 2000):

Columns and labels:
mouse EP3 α = molecular target: T1, mouse EP3 α (Mus musculus, UniProt P30557); test: Binding assay using cell expressing the prostanoid receptor subtypes (EP3α); details: more polar isomer; membrane fraction of CHO cell expressing mouse EP3α; [3H]-PGE2 2.5 nM; 1 hour, room temperature; pH 6.0; read-out: dissociation constant Ki (μM) EP3α
T1 construct: expressed in transfected cells; host or cells: CHO cells (membrane fraction)
T1 sequence (P30557 1-365): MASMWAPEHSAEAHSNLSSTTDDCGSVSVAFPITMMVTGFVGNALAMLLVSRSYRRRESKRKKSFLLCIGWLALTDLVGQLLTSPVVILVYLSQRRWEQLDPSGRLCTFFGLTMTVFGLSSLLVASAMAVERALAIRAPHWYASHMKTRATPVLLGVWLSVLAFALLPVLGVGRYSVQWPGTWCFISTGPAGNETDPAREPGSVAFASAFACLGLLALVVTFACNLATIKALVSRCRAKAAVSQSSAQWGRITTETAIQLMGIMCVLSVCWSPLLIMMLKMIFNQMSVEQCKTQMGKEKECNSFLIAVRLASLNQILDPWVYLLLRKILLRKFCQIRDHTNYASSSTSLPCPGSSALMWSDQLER
Method: For example, in a standard laboratory test, such effects of the compound of the present invention were confirmed by binding assay using cell expressing the prostanoid receptor subtypes. (i) Binding assay using cell expressing the prostanoid receptor subtypes
The preparation of membrane fraction was carried out according to the method of Sugimoto et al [J. Biol. Chem. 267, 6463-6466 (1 992)], using CHO cell expressing prostanoid receptor subtype (mouse EP3 α, EP4).
The standard assay mixture containing membrane fraction (0.5 mg/ml), [^3 H]-PGE2 in a final volume of 200 μl was incubated for 1 hour at room temperature. The reaction was terminated by addition of 3 ml of ice-cold buffer. The mixture was rapidly filtered through a glass filter (GF/B). The radioactivity associated with the filter was measured by liquid scintillation counter.
Kd and Bmax values were determined from Scatchard plots [Ann. N.Y. Acad. Sci., 51, 660 (1949)]. Non-specific binding was calculated as the amount bond in the presence of an excess (2.5 μM) of unlabeled PGE2. In the experiment for competition of specific [^3 H]-PGE2 binding by the compounds of the present invention, [^3 H]-PGE2 was added at a concentration of 2.5 nM and the compound of the present invention was added at a various concentration.
The following buffer was used in all reactions. Buffer: 10 mM potassium phosphate (pH 6.0), 1 mM EDTA, 10 mM MgCl2, 0.1 M NaCl
The dissociation constant (Ki) of each compound was calculated by the following equation.

mouse EP4 = molecular target: T2, mouse EP4 (Mus musculus, UniProt P32240); test: Binding assay using cell expressing the prostanoid receptor subtypes (EP4); details: more polar isomer; membrane fraction of CHO cell expressing mouse EP4; [3H]-PGE2 2.5 nM; 1 hour, room temperature; pH 6.0; read-out: dissociation constant Ki (μM) EP4
T2 construct: expressed in transfected cells; host or cells: CHO cells (membrane fraction)
Method: For example, in a standard laboratory test, such effects of the compound of the present invention were confirmed by binding assay using cell expressing the prostanoid receptor subtypes. (i) Binding assay using cell expressing the prostanoid receptor subtypes The preparation of membrane fraction was carried out according to the method of Sugimoto et al [J. Biol. […] The standard assay mixture containing membrane fraction (0.5 mg/ml), [^3 H]-PGE2 in a final volume of 200 μl was incubated for 1 hour at room temperature. The reaction was terminated by addition of 3 ml of ice-cold buffer. The mixture was rapidly filtered through a glass filter (GF/B). The radioactivity associated with the filter was measured by liquid scintillation counter. Kd and Bmax values were determined from Scatchard plots [Ann. N.Y. Acad. Sci., 51, 660 (1949)]. Non-specific binding was calculated as the amount bond in the presence of an excess (2.5 μM) of unlabeled PGE2. In the experiment for competition of specific [^3 H]-PGE2 binding by the compounds of the present invention, [^3 H]-PGE2 was added at a concentration of 2.5 nM and the compound of the present invention was added at a various concentration. The following buffer was used in all reactions. Buffer: 10 mM potassium phosphate (pH 6.0), 1 mM EDTA, 10 mM MgCl2, 0.1 M NaCl The dissociation constant (Ki) of each compound was calculated by the following equation.

T2 sequence (P32240 whole entry): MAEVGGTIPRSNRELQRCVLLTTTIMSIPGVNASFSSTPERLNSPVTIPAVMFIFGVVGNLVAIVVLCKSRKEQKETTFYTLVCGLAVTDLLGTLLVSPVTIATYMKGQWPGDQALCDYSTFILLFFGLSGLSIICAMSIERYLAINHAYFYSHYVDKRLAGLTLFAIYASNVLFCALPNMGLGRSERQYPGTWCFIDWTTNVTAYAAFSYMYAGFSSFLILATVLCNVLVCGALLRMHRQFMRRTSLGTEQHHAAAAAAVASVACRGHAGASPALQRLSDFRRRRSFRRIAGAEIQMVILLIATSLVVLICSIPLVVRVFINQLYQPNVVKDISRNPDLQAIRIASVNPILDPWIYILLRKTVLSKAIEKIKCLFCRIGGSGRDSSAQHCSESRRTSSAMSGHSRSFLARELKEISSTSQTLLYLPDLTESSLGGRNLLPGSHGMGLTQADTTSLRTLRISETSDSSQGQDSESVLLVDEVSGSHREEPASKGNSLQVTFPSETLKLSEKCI

SMILES | Ki (mouse EP3 α) | Ki (mouse EP4)
O=C(O)CSCCCS[C@H]1C(=O)C[C@@H](O)[C@@H]1/C=C/C(O)Cc1cccc(C#Cc2ccccc2)c1 (single isomer, unassigned) [Example 2(bbb), 11 α, 15-dihydroxy-9-oxo-16-(3-phenylethynylphenyl)-17,18,19,20-tetranor-3,7-dithiaprost-13E-enoic acid] | 0.23 µM | 0.0003 µM
COc1cccc(CC(O)/C=C/[C@H]2[C@H](O)CC(=O)[C@@H]2SCCCSCC(=O)O)c1 (single isomer, unassigned) [Example 2(f), 11 α, 15-dihydroxy-9-oxo-16-(3-methoxyphenyl)-17,18,19,20-tetranor-3,7-dithiaprost-13E-enoic acid] | 0.51 µM | 0.0099 µM
O=C(O)CSCCCS[C@H]1C(=O)C[C@@H](O)[C@@H]1/C=C/C(O)Cc1cccc(-c2ccco2)c1 (single isomer, unassigned) [Example 2(ii), 11 α, 15-dihydroxy-9-oxo-16-[3-(2-furyl)phenyl]-17,18,19,20-tetranor-3,7-dithiaprost-13E-enoic acid] | 0.25 µM | 0.0028 µM
COc1ccc(CC(O)/C=C/[C@H]2[C@H](O)CC(=O)[C@@H]2SCCCSCC(=O)O)cc1Cl (single isomer, unassigned) [Example 2(l), 11 α, 15-dihydroxy-9-oxo-16-(4-methoxy-3-chlorophenyl)-17,18,19,20-tetranor-3,7-dithiaprost-13E-enoic acid] | 2.2 µM | 0.011 µM
C=CCOCc1cccc(CC(O)/C=C/[C@H]2[C@H](O)CC(=O)[C@@H]2SCCCSCC(=O)O)c1 (single isomer, unassigned) [Example 2(lll), 11 α, 15-dihydroxy-9-oxo-16-[3-(2-propenyloxymethyl)phenyl]-17,18,19,20-tetranor-3,7-dithiaprost-13E-enoic acid] | 6.2 µM | 0.0014 µM
O=C(O)CSCCCS[C@H]1C(=O)C[C@@H](O)[C@@H]1/C=C/C(O)Cc1cccc(COC2CCCCC2)c1 (single isomer, unassigned) [Example 2(mmm), 11 α, 15-dihydroxy-9-oxo-16-(3-cyclohexyloxymethylphenyl)-17,18,19,20-tetranor-3,7-dithiaprost-13E-enoic acid] | > 10 µM | 0.04 µM
O=C(O)CSCCCS[C@H]1C(=O)C[C@@H](O)[C@@H]1/C=C/C(O)Cc1cccc(-c2ccccc2)c1 (single isomer, unassigned) [Example 2(r), 11 α, 15-dihydroxy-9-oxo-16-(biphenyl-3-yl)-17,18,19,20-tetranor-3,7-dithiaprost-13E-enoic acid] | 0.97 µM | 0.001 µM
O=C(O)CSCCCS[C@H]1C(=O)C[C@@H](O)[C@@H]1/C=C/C(O)Cc1cccc(COc2ccccc2)c1 (single isomer, unassigned) [Example 2(rr), 11 α, 15-dihydroxy-9-oxo-16-(3-phenyloxymethylphenyl)-17,18,19,20-tetranor-3,7-dithiaprost-13E-enoic acid] | 1.9 µM | 0.0042 µM
O=C(O)CSCCCS[C@H]1C(=O)C[C@@H](O)[C@@H]1/C=C/C(O)Cc1cccc(CCF)c1 (single isomer, unassigned) [Example 2(tt), 11 α, 15-dihydroxy-9-oxo-16-[3-(2-fluoroethyl)phenyl]-17,18,19,20-tetranor-3,7-dithiaprost-13E-enoic acid] | 0.9 µM | 0.0065 µM
COCc1cccc(C[C@H](O)/C=C/[C@H]2[C@H](O)CC(=O)[C@@H]2SCCCSCC(=O)O)c1 [Example 2, 11 α, 15 α-dihydroxy-9-oxo-16-(3-methoxymethylphenyl)-17,18,19,20-tetranor-3,7-dithiaprost-13E-enoic acid] | 1.2 µM | 0.0097 µM
